Reference: patent US7183252B2, “Indole peptidomimetics as thrombin receptor antagonists” (Ortho-McNeil Pharmaceutical, Inc., priority 1999, dated 2007)
Where two headings read alike, the source gives them in different places.

Experiments:
gel-filtered platelets = assay: In vitro inhibition of thrombin-induced gel-filtered platelet aggregation; type: cell-based; settings: human gel-filtered platelets, agonist thrombin 50 μL of 1 unit/mL, read-out: Thrmb IC50 (Thrombin-induced aggregation of gel-filtered platelets)
Summary of the method: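 Gel-filtered (Sepharose 2B) human platelets from citrated PRP, 2×10^7 per sample, in Tyrode's buffer pH 7.4 with BSA and added calcium, preincubated with test compound. Aggregation induced by thrombin (50 μL of 1 unit/mL) and followed as light transmission over 3 min. Inhibition is taken relative to control-treated platelets.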

[1] = target: T1, thrombin receptor (PAR-1) (Homo sapiens, UniProt P25116); assay: In vitro thrombin receptor binding assay (CHRF membranes); settings: tritiated 721-40 radioligand, read-out: Bndg IC50 (Thrombin receptor binding)
T1 construct: CHRF membranes (Jones, Biochim. Biophys. Acta 1992, 1136, 272) are thawed from −70° C; endogenous in cells; host or cells: CHRF cell membranes
T1 sequence (P25116 22-425): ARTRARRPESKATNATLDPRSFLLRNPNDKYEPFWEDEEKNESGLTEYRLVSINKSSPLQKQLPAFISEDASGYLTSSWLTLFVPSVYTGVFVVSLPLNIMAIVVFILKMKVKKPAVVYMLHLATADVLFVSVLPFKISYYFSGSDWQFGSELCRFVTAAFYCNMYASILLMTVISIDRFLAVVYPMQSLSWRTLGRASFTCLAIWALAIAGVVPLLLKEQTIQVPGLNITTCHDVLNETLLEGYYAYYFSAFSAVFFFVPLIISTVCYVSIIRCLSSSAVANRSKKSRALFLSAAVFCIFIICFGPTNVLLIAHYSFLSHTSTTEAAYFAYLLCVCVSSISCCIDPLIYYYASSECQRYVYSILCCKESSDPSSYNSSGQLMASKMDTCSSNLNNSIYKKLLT
Summary of the method: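 CHRF cell membranes incubated 30 min with tritiated peptide agonist 721–40 and compound at 3.7 μg/mL final (0.6% DMSO) in HEPES/MgCl2/BSA buffer. Nonspecific binding defined with unlabeled 721–40; bound radioactivity counted after filtration onto PEI-treated filters.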

Compound	IC50 (gel-filtered platelets; Platelet) [µM]	IC50 [1] [µM]	IC50 (gel-filtered platelets) [µM]
COc1ccc(C[C@H](NC(=O)Nc2ccc3c(CN4CCCC4)cn(Cc4ccc(F)cc4)c3c2)C(=O)N[C@@H](CCCNC(=N)N)C(=O)NCc2ccccc2)cc1 [Compound 1]	0.83	0.6	–
CC(=O)NCCCC[C@H](NC(=O)[C@H](Cc1ccc(F)c(F)c1)NC(=O)Nc1ccc2c(CN3CCCC3)cn(Cc3c(Cl)cccc3Cl)c2c1)C(=O)NCc1ccccc1 [Compound 71]	0.55	3	–
N=C(N)NCCC[C@H](NC(=O)[C@H](Cc1cccc(F)c1)NC(=O)Nc1ccc2c(CN3CCCC3)cn(Cc3c(Cl)cccc3Cl)c2c1)C(=O)NCc1ccc(S(N)(=O)=O)cc1 [Compound 92]	1.3	1	–
NC(=O)CC[C@H](NC(=O)[C@H](Cc1ccc(F)c(F)c1)NC(=O)Nc1ccc2c(CN3CCCC3)cn(Cc3c(Cl)cccc3Cl)c2c1)C(=O)NCc1ccccc1 [Compound 103]	0.54	1.2	–
COc1ccc(C[C@H](NC(=O)Nc2ccc3c(CN4CCCCC4)cn(Cc4ccc(F)cc4)c3c2)C(=O)N[C@@H](CCCNC(=N)N)C(=O)NCC2CCCCC2)cc1 [Compound 8]	8	2.3	–
Cc1ccccc1Cn1cc(CN2CCCC2)c2ccc(NC(=O)N[C@@H](Cc3ccc(F)c(F)c3)C(=O)N[C@@H](CCCNC(=N)N)C(=O)NCCc3ccccc3Cl)cc21 [Compound 64]	2.2	0.23	–
N=C(N)NCCC[C@H](NC(=O)[C@H](Cc1ccc([N+](=O)[O-])cc1)NC(=O)Nc1ccc2c(CN3CCCC3)cn(Cc3ccc(F)cc3)c2c1)C(=O)NCc1ccccc1 [Compound 49]	6.1	1	–
NCC[C@H](NC(=O)[C@H](Cc1ccc(F)c(F)c1)NC(=O)Nc1ccc2c(CN3CCCC3)cn(Cc3c(Cl)cccc3Cl)c2c1)C(=O)NCc1ccccc1 [Compound 102, Benzenepropanamide, N-[(1S)-3-amino-1-[[(phenylmethyl)amino]carbonyl]propyl]-α-[[[[1-[(2,6-dichlorophenyl)methyl]-3-(1-pyrrolidinylmethyl)-1H-indol-6-yl]amino]carbonyl]amino]-3,4-difluoro-, (αS)-]	0.16	0.5	–
COc1ccccc1CCNC(=O)[C@H](CCCNC(=N)N)NC(=O)[C@H](Cc1ccc(F)c(F)c1)NC(=O)Nc1ccc2c(CN3CCCC3)cn(Cc3ccccc3C)c2c1 [Compound 65]	1	0.22	–
N=C(N)NCCC[C@H](NC(=O)[C@H](Cc1ccc(Br)cc1)NC(=O)Nc1ccc2c(CN3CCCCC3)cn(Cc3c(Cl)cccc3Cl)c2c1)C(=O)NCc1ccccc1 [Compound 63]	0.7	0.13	–
COc1ccc(C[C@H](NC(=O)Nc2ccc3c(CN4CCCC4)cn(Cc4ccccc4C)c3c2)C(=O)N[C@@H](CCCNC(=N)N)C(=O)NCc2ccccc2)cc1 [Compound 17]	0.42	0.97	–
CCOC(=O)N1CCC(NC(=O)[C@H](CCN)NC(=O)[C@H](Cc2ccc(F)c(F)c2)NC(=O)Nc2ccc3c(CN4CCCC4)cn(Cc4c(Cl)cccc4Cl)c3c2)CC1 [Compound 144]	0.32	0.07	–
N=C(N)NCCC[C@H](NC(=O)Nc1ccc2c(CN3CCCC3)cn(Cc3c(Cl)cccc3Cl)c2c1)C(=O)N[C@@H](Cc1ccc(F)c(F)c1)C(=O)NCc1ccccc1 [Compound 80]	11.3	5.9	–
COc1ccc(C[C@H](NC(=O)Nc2ccc3c(CN4CCCC4)cn(Cc4cccc(C)c4)c3c2)C(=O)N[C@@H](CCCNC(=N)N)C(=O)NCC2CCCCC2)cc1 [Compound 9]	2.5	10.4	–
COc1ccc(C[C@H](NC(=O)Nc2ccc3c(CN4CCCC4)cn(Cc4ccccc4)c3c2)C(=O)N[C@@H](CCCNC(=N)N)C(=O)NCc2ccccc2)cc1 [Compound 22]	3	4	–
COc1ccc(CNC(=O)[C@H](CCCNC(=N)N)NC(=O)[C@H](Cc2ccc(F)c(F)c2)NC(=O)Nc2ccc3c(CN4CCCC4)cn(Cc4c(Cl)cccc4Cl)c3c2)cc1 [Compound 61]	1.4	0.3	–
Cc1ccccc1Cn1cc(CN2CCCC2)c2ccc(NC(=O)N[C@@H](Cc3ccc(-c4ccccc4)cc3)C(=O)N[C@@H](CCCNC(=N)N)C(=O)NCc3ccccc3)cc21 [Compound 39]	3.5	21.5	–
NCCC[C@H](NC(=O)[C@H](Cc1ccc(F)c(F)c1)NC(=O)Nc1ccc2c(CN3CCCC3)cn(Cc3c(Cl)cccc3Cl)c2c1)C(=O)NCc1ccccc1 [Compound 66]	0.24	1.1	–

Compound	IC50 (gel-filtered platelets; Platelet) [µM]	IC50 [1] [µM]	IC50 (gel-filtered platelets) [µM]
NCC[C@H](NC(=O)[C@H](Cc1ccc(F)c(F)c1)NC(=O)Nc1ccc2c(CN3CCCC3)cn(Cc3c(Cl)cccc3Cl)c2c1)C(=O)NCCc1c[nH]cn1 [Compound 142]	1.9	0.48	–
COc1ccc(C[C@H](NC(=O)Nc2ccc3c(CNCCCN4CCCC4)cn(Cc4ccc(F)cc4)c3c2)C(=O)N[C@@H](CCCNC(=N)N)C(=O)NCc2ccccc2)cc1 [Compound 33]	54.7	5.4	–
CCSC[C@H](NC(=O)[C@H](Cc1ccc(Cl)cc1)NC(=O)Nc1ccc2c(CN3CCCC3)cn(Cc3c(Cl)cccc3Cl)c2c1)C(=O)NCCN [Compound 149]	1.2	0.15	–
COC[C@H]1CCCN1Cc1cn(Cc2c(Cl)cccc2Cl)c2cc(NC(=O)N[C@@H](Cc3ccc(Cl)cc3)C(=O)N[C@@H](CCCNC(=N)N)C(=O)NCc3ccccc3)ccc12 [Compound 87]	1.3	0.28	–
CCN(CC)Cc1cn(Cc2ccccc2C)c2cc(NC(=O)N[C@@H](Cc3ccc(N)cc3)C(=O)N[C@@H](CCCNC(=N)N)C(=O)NCc3ccccc3)ccc12 [Compound 35]	13	13.1	–
C=CCN(C)Cc1cn(Cc2c(Cl)cccc2Cl)c2cc(NC(=O)N[C@@H](Cc3cccc(F)c3)C(=O)N[C@@H](CCCN)C(=O)NC3Cc4ccccc4C3)ccc12 [Compound 97]	18.8	1.7	–
N=C(N)NCCC[C@H](NC(=O)[C@H](Cc1ccc(F)c(F)c1)NC(=O)Nc1ccc2c(CN3CCCC3)cn(Cc3c(Cl)cccc3Cl)c2c1)C(=O)NCc1ccccc1 [Compound 46, L-Argininamide, 3,4-difluoro-N-[[[1-[(2,6-dichlorophenyl)methyl]-3-(1-pyrrolidinylmethyl)-1H-indol-6-yl]amino]carbonyl]-L-phenylalanyl-N-(phenylmethyl)-]	–	0.47	0.28
CSCC[C@H](NC(=O)[C@H](Cc1ccc(F)c(F)c1)NC(=O)Nc1ccc2c(CN3CCCC3)cn(Cc3c(Cl)cccc3Cl)c2c1)C(=O)NCCN [Compound 143]	0.29	0.02	–
CN(Cc1cn(Cc2c(Cl)cccc2Cl)c2cc(NC(=O)N[C@@H](Cc3ccc(Cl)cc3)C(=O)N[C@@H](CCCN)C(=O)NC3Cc4ccccc4C3)ccc12)CC1OCCO1 [Compound 122]	3.5	10.5	–
NCC[C@H](NC(=O)[C@H](Cc1ccc(F)c(F)c1)NC(=O)Nc1cccc2c(CN3CCCC3)cn(Cc3c(Cl)cccc3Cl)c12)C(=O)NCc1ccccc1 [Compound 167]	8.5	67.6	–
N=C(N)NCCC[C@H](NC(=O)[C@H](Cc1ccc2ccccc2c1)NC(=O)Nc1ccc2c(CN3CCCC3)cn(Cc3c(Cl)cccc3Cl)c2c1)C(=O)NCc1ccccc1 [Compound 38]	2.5	33.5	–
NCCNC(=O)[C@H](Cc1ccncc1)NC(=O)[C@H](Cc1ccc(Cl)cc1)NC(=O)Nc1ccc2c(CN3CCCC3)cn(Cc3c(Cl)cccc3Cl)c2c1 [Compound 135, L-Alaninamide, 4-chloro-N-[[[1-[(2,6-dichlorophenyl)methyl]-3-(1-pyrrolidinylmethyl)-1H-indol-6-yl]amino]carbonyl]-L-phenylalanyl-N-(2-aminoethyl)-3-(4-pyridinyl)-]	–	0.89	0.69
COc1ccc(C[C@H](NC(=O)Nc2ccc3c(CN4CCCC4)cn(Cc4ccc(OC)cc4)c3c2)C(=O)N[C@@H](CCCNC(=N)N)C(=O)NCc2ccccc2)cc1 [Compound 20]	26.6	17.1	–
CCCN(CCC)Cc1cn(Cc2c(Cl)cccc2Cl)c2cc(NC(=O)N[C@@H](Cc3ccc(OC)cc3)C(=O)N[C@@H](CCCNC(=N)N)C(=O)NCc3ccccc3)ccc12 [Compound 41]	4.8	10.4	–
NCCNC(=O)CNC(=O)[C@H](Cc1cccc(F)c1)NC(=O)Nc1ccc2c(CN3CCCC3)cn(Cc3c(Cl)cccc3Cl)c2c1 [Compound 147]	4.4	0.42	–
NC(N)=NCCC[C@H](NC(=O)[C@H](Cc1ccc(F)c(F)c1)NC(=O)Nc1ccc2c(CN3CCCC3)cn(Cc3ccc(F)cc3)c2c1)C(=O)NCc1ccco1 [Compound 82]	1.5	0.31	–
CCN(CC)Cc1cn(CCCc2ccccc2)c2cc(NC(=O)N[C@@H](Cc3ccc(F)c(F)c3)C(=O)N[C@@H](CCCNC(=N)N)C(=O)NCc3ccccc3)ccc12 [Compound 75]	2.2	0.23	–
